Counter-ions that a name gives are not always drawn.

This data set in a line: Particle size of microparticles by laser diffraction analysis. The format is physicochemical. To be noted: starting material of Example 2. The method, then:
The particle size of the obtained microparticles was determined by laser diffraction analysis. The parameters taken into consideration were: i) the VD in micron of 10%, 50%, and 90% of the particles expressed as d(v, 0.1), d(v, 0.5) and d(v, 0.9), respectively, which correspond to the mass diameter assuming a size independent density for the particles. ii) the polydispersity of the powder, i.e. the width of the particle size distribution which is expressed by the span (span=[d(v, 0.9)−d(v, 0.1)]/d (v, 0.5)—according to Chew N Y et al J Pharm Pharmaceut Sci 2002, 5, 162-168).
The agglomerates were isolated by sieving and their particle size distribution determined by laser diffraction analysis.
The microparticles were characterised in terms of particle size (laser diffraction analysis) and uniformity of distribution of the active ingredient.

As for `COc1ccc(C[C@@H](C)NC[C@H](O)c2ccc(O)c3[nH]c(=O)ccc23)cc1` [CHF 4226 hydrochloride, 8-hydroxy-5-[(1R)-1-hydroxy-2-[[(1R)-2-(4-methoxyphenyl)-1-methylethyl]amino]ethyl-2(1H)-quinolinone hydrochloride], the “MMD of micronised active ingredient” value is recorded as 1.8 micron.
